Reference: patent publication US12029738B2, “Antiproliferative compounds and methods of use thereof” (Celgene Corporation, priority 2017, dated 2024)
Read-outs that look alike come from different tables or passages of the source.

Experiments:
[1] = test system: MM cell lines (NCI-H929, NCI-H929-1051, OPM2, OPM2-P10); experiment: Cell proliferation assay (CTG, 120 h), four cell lines together; format: cell-based; settings: Homo sapiens, range over four cell lines and both compounds, read-out: antiproliferative IC50 values (range)
Protocol: Cell Culture Materials: Human multiple myeloma cell lines were purchased from the vendors and cultured at 37° C. with 5% CO2 in the media as indicated in Table 1. Lenalidomide and pomalidomide resistant cell lines were obtained by methods as generally described previously (Lopez-Girona et al Leukemia 2012; 26(11): 2335). All cell lines were kept in log phase, and cell density and viability were monitored by trypan blue exclusion using the Vi-cell XR cell viability analyzer (Beckman Coulter, Brea, CA).
Preparation of Solutions of Test Article: Compounds were plated into black 384-well plates (Corning Inc.) to a final DMSO volume of 0.1% assuming a maximal volume of 50 μL. […]
Cell Proliferation Assays: The effect of compounds on the proliferation/viability of the hematological cell lines (Table 1), was assessed after 120 h incubation using CTG (Promega), according to manufacturer's instructions. […] At 120 h, 25 μL per well of CTG was dispensed by a Multidrop Combi Reagent Dispenser and adenosine triphosphate (ATP) release by viable cells was measured as relative luminescence units after 30 minutes using the Envision platform.
Results. […] Proliferation was assessed using the CellTitre-Glo© assay. […] The IC50 for inhibition of cell growth by the compounds was determined for each cell line using ActivityBase software.

JJN-3 = experiment: Flow cytometry proliferation/apoptosis assay (120 h); format: cell-based, human
Protocol: Methods. […] Using 5 mM stocks, compounds were pre-spotted into the appropriate wells of 96-well plates using a Hewlett-Packard D300 Digital Dispenser. Cells were added to 96-well plates using a Multidrop Combi Reagent Dispenser. After 5 days of treatment, flow cytometric analysis was used to determine the number of cells that were alive, dead, or apoptotic. After 5 days of treatment, cells were incubated with annexin V to stain exposed phosphatidylserine, an apoptotic cell-surface marker, and the vital dye 7-AAD, which is excluded from cells with intact cell membranes, and analyzed by flow cytometry (Attune®, Thermo Fisher). Analysis was then performed to determine the number of live cells (annexin V and 7-AAD double negative staining cells) and the percentage of apoptotic cells (annexin V positive cells) for each condition, relative to the DMSO control treated, was calculated. All described values were normalized to DMSO-only treated cells. […] The live cell count for every concentration was normalized to the DMSO control (considered as 100%) in Microsoft Excel to generate the proliferation curves. […] Similarly, for apoptosis analysis, the percentage of drug-induced apoptosis was calculated for all doses by combining both “early” (annexin V positive and 7-AAD negative) and “late” apoptosis (annexin V and 7-AAD positive) values and subtracting background values (cell treated with vehicle control DMSO). […] The area under the dose-response curve (AUC) was calculated since it integrates potency and efficacy of the drugs to represent apoptosis into a single parameter.
Each data point represents 2 independent experiments with at least two samples in each experiment.

K562 cells = experiment: Coculture of compound-treated IL-2-activated PBMCs with K562 cells; format: cell-based, human; settings: for IC50: Homo sapiens, K562, IL-2-activated PBMCs treated 72 h, 4 h coculture, read-out: IC50 of compound-treated PBMCs for direct K562 cell killing
Protocol: Coculture Experiments with Peripheral Blood Mononuclear Cells and K562 Cells. Methods: Human Peripheral Blood Mononuclear Cell (PBMC) Preparation: PBMCs isolated from healthy donors were cultured in RPMI 1640 medium with 10% FBS at a density of 1×10^6 cells/mL.
Cell Culture: K562 cells were kept in log phase, and cell density and viability were monitored by trypan blue exclusion using the Vi-CELL® XR cell viability analyzer (Beckman Coulter, Brea, CA).
Assay Procedures: Freshly isolated human PBMCs were cultured with recombinant IL-2 at concentration of 20 units/mL for 72 h. Peripheral blood mononuclear cells were then spun down and re-suspended in fresh RPMI complete medium to 2×10^6 cells/mL. Cells were then treated with DMSO or compounds at the indicated concentrations and incubated for an additional 72 h. The PBMCs were then washed twice in fresh RPMI complete medium prior to coculture. K562 cells were re-suspended to a cell density of 1×10^6/mL and stained with 1 μM CellTrace CFSE according to manufacturer's instructions. The labeled K562 cells were then seeded into a 96-well round bottom plate at 1×10^5 cells/well. Peripheral blood mononuclear cells were then transferred into the same 96-well plate at a 1:15 ratio, in triplicate and incubated at 37° C. for 4 h. Specific target cell lysis by PBMC cells was measured using Annexin V-fluorescein isothiocyanate (FITC) and propidium iodide (PI) according to manufacturer's instructions and samples were run on the FACS Array scan. Non-labeled K562 cells, CellTrace CFSE-labeled K562 cells, and Annexin V-FITC- and PI labeled untreated K562 cells were included in each assay as controls.

[2] = JJN-3 (DSMZ); 120 h; scale 0-10000

SMILES | IC50 [1] | IC50 (JJN-3; Homo sapiens, JJN-3, 120 h, read-out: Antiproliferative Activity (Flow Cytometry) IC50) | induced apoptosis AUC (area under the dose response curve) (JJN-3; [2]) | potency relative to lenalidomide-treated PBMCs (K562 cells; 50% direct K562 cell killing) | potency relative to pomalidomide-treated PBMCs (K562 cells; 50% direct K562 cell killing) | IC50 (K562 cells) | IC50 (JJN-3; Homo sapiens; JJN-3; 120 h; read-out: Antiproliferative Activity (Flow Cytometry) IC50)
N#Cc1ccc(N2CCN(Cc3ccc(COc4cccc5c4CN(C4CCC(=O)NC4=O)C5=O)cc3)CC2)c(F)c1 (racemic) [Compound 1, 4-(4-(4-(((2-(2,6-dioxopiperidin-3-yl)-1-oxoisoindolin-4-yl)oxy)methyl)benzyl)piperazin-1-yl)-3-fluorobenzonitrile] | 0.07 to 19 nM |  |  |  |  |  | 
N#Cc1ccc(N2CCN(Cc3ccc(COc4cccc5c4CN([C@H]4CCC(=O)NC4=O)C5=O)cc3)CC2)c(F)c1 [Compound 2, (S)-4-(4-(4-(((2-(2,6-dioxopiperidin-3-yl)-1-oxoisoindolin-4-yl)oxy)methyl)benzyl)piperazin-1-yl)-3-fluorobenzonitrile] | 0.07 to 19 nM | 0.1 nM | 1125 | ~2600 fold | ~600 fold | 5900 nM | 
Nc1cccc2c1C(=O)N(C1CCC(=O)NC1=O)C2=O (stereo not shown) [Pomalidomide, pomalidomide] |  |  | 199.1 |  |  | 4 nM | 366 nM
